Experimental data from patent US7045343B2, “Sterilization indicator test packs” (3M Innovative Properties Company, priority 1998, dated 2006).

Tested on: Bacillus stearothermophilus spores
Test: Spore outgrowth (color change) of indicators after hydrogen peroxide plasma sterilization
Type: cell-based
Conditions: 1–22 min diffusion
Method: Sterilization indicators for Examples 6–9 were prepared as described above with the exception that closure member 22 of the sterilization indicator was constructed of TYVEK™ high-density polyethylene fiber material, commercially available from E.I. du Pont de Nemours and Co., Wilmington, Del.
(§1) Sterilization indicators were made as described above with spores that had been coated with each of the chemicals and concentrations listed in Table 6. The indicators were placed in instrument trays and exposed to a hydrogen peroxide plasma sterilization procedure at 45–55° C. in a STERRAD™ 100SI GMP Sterilizer, obtained from Advanced Sterilization Products Co., Irvine, Calif. During the sterilization procedure a vacuum was drawn in the sterilization chamber for 5–6 minutes until the pressure was reduced to 300 mTorr. A 1.8 ml aliquot of an aqueous solution of 58–60% hydrogen peroxide was then injected into the sterilization chamber over a period of about 6 minutes, yielding an empty chamber concentration of […] hydrogen peroxide, and hydrogen peroxide vapor was allowed to diffuse throughout the chamber for 1–22 minutes at 6–10 Torr. A vacuum was then drawn, reducing the pressure to 500 mTorr and removing all detectable hydrogen peroxide vapor from the chamber.
After exposure to the sterilization procedure, the indicators were removed from the sterilizer and the inner containers containing the enzyme substrate and nutrient medium were crushed. The indicators were then incubated at 60° C. and examined for fluorescence every hour for 5 hours using a 3M™ ATTEST™ Model 190 Rapid Autoreader, commercially available from 3M Company, St. Paul, Minn. Additionally, spore growth, as indicated by a color change from purple to yellow, was determined visually after 168 hours of incubation.
The number of growth positive indicators detected after 168 hours of incubation is recorded in Table 6.
as §1, with “7.” for “6.”
as §1, with “8.” for “6.”, “chamber. […]” for “chamber.”

Decaglyceryl Decaoleate
NO. GROWTH POSITIVE 168 HR (Example 6, 10 mg/ml coating): 49 | NO. GROWTH POSITIVE 168 HR (Example 7, 10 mg/ml coating): 49 | NO. GROWTH POSITIVE 168 HR (Example 9, 5 mg/ml coating): 35 | NO. GROWTH POSITIVE 168 HR (Example 9, 7.5 mg/ml coating): 35 | NO. GROWTH POSITIVE 168 HR (Example 9, 10 mg/ml coating): 49 | NO. GROWTH POSITIVE 168 HR (Example 9, 50 mg/ml coating): 21 | NO. GROWTH POSITIVE 168 HR (Example 9, 100 mg/ml coating): 30

Decaglyceryl Monostearate
NO. GROWTH POSITIVE 168 HR (Example 7, 50 mg/ml coating): 59
